Data as given in patent publication US20230348562A1, “Proinsulin Peptides for Type I Diabetes” (King's College London, priority 2019, published 2023).
Where no end group is shown, it is not given here.

How the values were obtained:
[1] = test system: DR3DQ2×RIP-B7.1 mice; experiment: Adjuvanted antigen priming (disease acceleration), diabetes monitoring; type: in vivo
Description: Mice were monitored weekly for diabetes up to 20 weeks post prime. The grey dotted line indicates the expected level of spontaneous diabetes in mice aged 12 weeks on day 0 of the experiments (based on the data in FIG. 1 and normalised for gender). Statistical analysis with Mantel-Cox Log-rank test. **p<0.01, ***p<0.001. • (b-e) Blood glucose levels for each individual mouse in the group immunised with PBS (b), murine proinsulin-2 peptides (c), human GAD65 (d) or fragment of human IA-2 (e).
Mice were monitored weekly for diabetes up to 20 weeks post prime. The grey dotted line indicates the expected level of spontaneous diabetes in mice aged 8 weeks on day 0 of the experiment, based on the data in FIG. 1 and normalised for gender. Statistical analysis with Mantel-Cox Log-rank test. ***p<0.001 for B23-C20 versus B1-30 or C10-A6. ? p<0.01 for B23-C20 versus C25-A21. Rest not significant. • (b-e) Blood glucose levels for each individual mouse in the group immunised with B1-30 (b), B23-C20 (c), C10-A6 (d) or C25-A21 (e).
(a) DR3DQ2×RIP-B7.1 mice aged 10-14 weeks were challenged with 100 μg of either GP-15 (2 ♂3♀), YA-15 (2 ♂3♀), ME-15 (3 ♂2♀), RG-15 (3 ♂2♀), DA-15 (2 ♂3♀) or VD-14 (3♂2♀) peptide in TiterMax Gold adjuvant s.c. on days 0 and 14, with 200 ng pertussis toxin administered i.p on days 0 and 1 or 2. Mice were monitored weekly for diabetes up to 20 weeks post prime. The grey dotted line indicates the expected level of spontaneous diabetes in mice aged 14 weeks on day 0 of the experiments (based on the data in FIG. 1 and normalised for gender). Statistical analysis with Mantel-Cox Log-rank test. *p<0.05 for RG-15 versus YA-15, **p<0.01 for ME-15 versus GP-15, YA-15 or VD-14. ? p<0.05 for ME-15 versus DA-15. Rest not significant. (b-f) Blood glucose levels for each individual mouse in the group immunised with GP-15 (b), YA-15 (c), ME-15 (d), RG-15 (e), DA-15 (f), VD-14 (g).
HLA-DR3-DQ2-transgenic (B6.hCD4.DR3-DQ2.MHCII^−/− mice (described previously (de Kauwe A L et al. (2009) J Immunol 182(12): 7440-7450), and obtained from J. McCluskey) were crossed with RIP-B7.1-transgenic animals (B6.Cg-Tg(Ins2-CD80)3B7Flv/Orl, EMMA, Orleans, France; ID 00216) in order to obtain HLA-DR3-DQ2^+huCD4^+IA/IE^−/−RIP.B7.1^+ mice, hereafter referred to as DR3DQ2×RIP-B7.1. DR4×RIP-B7.1 mice, generated by crossing B6.129S2-H2-Ab1^tm/Gru Tg(HLA-DRA/H2-Ea,HLA-DRB1*0401/H2-Eb) 1Kito mice with B6.Cg-Tg(Ins2-CD80)3B7Flv/Orl, were described previously (Verhagen J, et al. (2018) Sci Rep 8(1): 14106). All animals were kept under specific-pathogen-free conditions, in individually ventilated cages, at the KCL Biological Services Unit on 12-hour light/dark cycles with food and water provided ad libitum. Experiments were conducted in accordance with UK Home Office regulations under a project license held by M. Peakman. All work was subject to assessment and approved locally by Guy's animal welfare and ethical review board (AWERB).
All mice were monitored regularly for unprovoked glycosuria using Diastix strips (Bayer, Basel, Switzerland). Some mice were monitored weekly for hyperglycaemia, from the age of 6-7 weeks, by a minimal puncture of the tail vein at alternate sides of the tail and analysis using a OneTouch Verio meter and strips (Lifescan, High Wycombe, UK), in order to closely monitor progression towards spontaneous diabetes. Mice were considered diabetic following a blood glucose reading >16.7 mmol/l (300 mg/dl) in addition to confirmed glycosuria. […] Mice (aged 6-14 weeks) were primed with 100 μg of peptides or protein in TiterMax Gold adjuvant (TiterMax, Norcross, GA, USA) subcutaneously (s.c.) at the base of the tail and received a second dose s.c. distributed over the inguinal region on day 14. Mice received 200 ng Pertussis toxin (Sigma, Poole, UK) in PBS intraperitoneally (i.p.) on days 0 and 1 or 2. Mice were then monitored weekly for hyperglycaemia and for glycosuria. […]

[2] = test system: RIP.CD80×DR3DQ2 mice; experiment: Tolerance induction against accelerated diabetes; type: in vivo; conditions: 10 μg soluble peptide s.c., 6 injections, before and after priming with murine B23-C20 in adjuvant; ME-15 versus YA-15 p<0.01, versus VD-14 p<0.05
Method: FIG. 6 Tolerance induction against accelerated diabetes in RIP.CD80×DR3DQ2 mice. (a) Schedule of dosing. Mice aged 7-8 weeks (n=7 per group) were treated with soluble 14/15-mer peptide in PBS subcutaneously (s.c.) before and after acceleration of diabetes development by antigenic priming with 30-mer murine proinsulin-2 peptide B23-C20 in TiterMax Gold adjuvant on days 0 and 14. Pertussis toxin administered intraperitoneally (i.p.) on days 0 and 2. (b) Diabetes incidence in mice treated with 14/15-mer peptide ME-15 (1♀6♂), YA-15 (4♀3♂) or VD-14 (3♀4♂). Statistical analysis with Mantel-Cox Log-rank test. ME-15 versus YA-15, p<0.01; ME versus VD-14, p<0.05.
All mice were monitored regularly for unprovoked glycosuria using Diastix strips (Bayer, Basel, Switzerland). Some mice were monitored weekly for hyperglycaemia, from the age of 6-7 weeks, by a minimal puncture of the tail vein at alternate sides of the tail and analysis using a OneTouch Verio meter and strips (Lifescan, High Wycombe, UK), in order to closely monitor progression towards spontaneous diabetes. Mice were considered diabetic following a blood glucose reading >16.7 mmol/l (300 mg/dl) in addition to confirmed glycosuria. […] Mice were then monitored weekly for hyperglycaemia and for glycosuria. […]

[3] = Solubility of peptide; type: physicochemical
[4] = test system: human peripheral blood mononuclear cells (PBMCs); experiment: ELISPOT assay of cytokine responses to proinsulin peptides; type: cell-based; conditions: 10 μg/ml peptide, 48 hours
Description: Responses to proinsulin B30-C13 in human donors. PBMC from individuals with either HLA-DR3-DQ2 (a) or any other haplotype (b) were stimulated in vitro with human proinsulin-derived peptide B30-C13 or C19-A3 prior to detection of IFNγ by ELISPOT assay. HLA-DR3-DQ2 individuals, n=3; non-HLA-DR3-DQ2, n=6. *p<0.05, ratio paired t test.
Responses to proinsulin B23-C20, B29-C11, B29-C14, B30-C13 and C-1-C14 peptides are shown. PBMCs from 5 type 1 diabetes patients with HLA-DR3-DQ2 (identified as #1-#5) were stimulated in vitro with human proinsulin-derived peptides B23-C20, B29-C11, B29-C14, B30-C13 and C−1-C14 prior to detection of IFN-γ and IL-17 (pro-inflammatory responses) and IL-10 (regulatory response) by ELISPOT assay. […]
ELISPOT assays were carried out using human peripheral blood mononuclear cells (PBMCs) isolated from fresh heparinized blood. […] The cytokine secretion assay was performed using the IFN-γ, IL-17 and IL-10 ELISPOT kits (U-CyTech) according to the manufacturer's instructions and plates were analysed using an automated ELISPOT Bioreader 6000 (Bio-Sys) and relevant software. Data are expressed as the total number of spots in triplicate wells after peptide stimulation divided by the total number of spots in diluent only control wells (stimulation index [SI]) or as responder CD4 T cells/10^6 PBMCs.

[5] = adjuvanted priming, follow up to 20 weeks post prime

Substance: DPQVAQLELGGGPGA (listed as Mus musculus) [DA-15, murine proinsulin-2 15-mer]
- diabetes acceleration / incidence versus control or spontaneous onset (in words) [1, 5]: cannot

Substance: GAD65: Recombinant human GAD65 (T-cell GAD) purchased from Diamyd Medical
- diabetes acceleration / incidence versus control or spontaneous onset (in words) [1, 5]: only priming with proinsulin peptides clearly hastened diabetes onset and increased incidence

Substance: GFFYTPMSRREVEDPQVAQLELGGGPGAGD (listed as Mus musculus) [B23-C20, murine 30-mer proinsulin-2 peptide B23-C20]
- mean time of onset of diabetes (SD) ([1]; 100 μg in TiterMax Gold adjuvant s.c. days 0 and 14, pertussis toxin): 49±16.2 days post prime
- diabetes incidence ([1]; by day 84 post prime, 100 μg in TiterMax Gold adjuvant): 100%
- diabetes acceleration / incidence versus control or spontaneous onset (in words) ([1]; mouse, in vivo): most overt disease exacerbation, with very rapid development of diabetes

Substance: MSRREVEDPQVAQLE (listed as Mus musculus) [ME-15]
- tolerogenic effect on diabetes induced with B23-C20 [2]: tolerogenic effect
- diabetes acceleration / incidence versus control or spontaneous onset (in words) [1, 5]: markedly higher disease incidence during follow up than would be expected spontaneously

Substance: REVEDPQVAQLELGG [RG-15, REVEDPQVAQLELGG]
- solubility in aqueous solution ([3]; aqueous solution): highly insoluble
- solubility in dimethyl sulfoxide ([3]; dimethyl sulfoxide): soluble

Substance: TRREAEDLQVGQVELG (listed as Homo sapiens) [B30-C13, fragment of human proinsulin, residues B30-C13]
- IFNγ ELISPOT response, HLA-DR3-DQ2 donors versus donors without this haplotype ([4]; HLA-DR3-DQ2 n=3, non-HLA-DR3-DQ2 n=6): greater response
- IFNγ ELISPOT response versus control peptide C19-A3 ([4]; p<0.05 ratio paired t test): greater than that to our control peptide C19-A3

Substance: VAQLELGGGPGAGD (listed as Mus musculus) [VD-14, murine proinsulin-2 14-mer]
- diabetes acceleration / incidence versus control or spontaneous onset (in words) [1, 5]: cannot
